What was measured:
GABAA receptor α2β3γ2 = molecular target: T1, GABAA receptor α2β3γ2 (Homo sapiens, UniProt P18507+P47869); assay: Two-electrode voltage-clamp potentiation of GABA EC10 current in Xenopus oocytes, GABAA2; type: cell-based; settings: percentage potentiation of GABA EC10 current divided by that of diazepam
T1 construct: expressed in transfected cells; host or cells: Xenopus laevis oocytes injected with cRNA
Method in brief: (§1)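 Human GABAA receptors expressed in Xenopus oocytes by cRNA injection (α:β:γ molar ratio ~1:1:10 for α1β2γ2, 1:1:1 for α2β3γ2), recorded 2-10 days later by two-electrode voltage clamp at −60 mV in ND-96, pH 7.5. Modulator preapplied 30 s before GABA at per-oocyte EC10. Peak-current percent potentiation over GABA alone, normalised to diazepam.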

GABAA receptor α1β2γ2 = molecular target: T2, GABAA receptor α1β2γ2 (Homo sapiens, UniProt P14867+P18507); assay: Two-electrode voltage-clamp potentiation of GABA EC10 current in Xenopus oocytes, GABAA1; type: cell-based; settings: percentage potentiation of GABA EC10 current divided by that of diazepam
T2 construct: expressed in transfected cells; host or cells: Xenopus laevis oocytes injected with cRNA
Method in brief: as §1

[1] = molecular target: T3, GABAA2 receptors (α2, β3, γ2 receptor subunits transfected into Sf9 cells) (Homo sapiens, UniProt P18507+P47869); assay: GABAA2 Binding Method ([3H]-Flunitrazepam displacement); settings: [3H]-Flunitrazepam ~2 nM, α2β3γ2 Sf9 membranes, 1 hr at 4° C.
T3 construct: host or cells: Sf9 cells (membranes)
Method in brief: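 Membranes from Sf9 cells expressing α2β3γ2 GABAA receptors incubated with ~2 nM (final) [3H]-flunitrazepam and test compound 1 h at 4 °C, then filtered on GF/B plates with cold-buffer washes. Flumazenil-defined controls; percent of control, IC50 and Ki calculated.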

[2] = listed as 9-amino-6-fluoro-5-(2-fluoro-6-methoxyphenyl)-2-methyl-2,3-dihydro-1H-pyrrolo[3

T1 sequence (P47869 29-451): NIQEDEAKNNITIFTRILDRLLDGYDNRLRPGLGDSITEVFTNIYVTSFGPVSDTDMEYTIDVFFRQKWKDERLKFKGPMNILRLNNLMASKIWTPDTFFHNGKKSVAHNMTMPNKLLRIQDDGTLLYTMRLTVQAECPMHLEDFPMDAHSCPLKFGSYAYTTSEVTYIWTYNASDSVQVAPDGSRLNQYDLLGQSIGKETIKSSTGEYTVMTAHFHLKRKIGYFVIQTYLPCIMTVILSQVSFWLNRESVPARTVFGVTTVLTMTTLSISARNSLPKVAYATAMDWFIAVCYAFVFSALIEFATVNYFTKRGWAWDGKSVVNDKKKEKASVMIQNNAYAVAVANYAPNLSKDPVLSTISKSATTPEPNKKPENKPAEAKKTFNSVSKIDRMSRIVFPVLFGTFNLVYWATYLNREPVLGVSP
T1 sequence (P28472 26-473 partner): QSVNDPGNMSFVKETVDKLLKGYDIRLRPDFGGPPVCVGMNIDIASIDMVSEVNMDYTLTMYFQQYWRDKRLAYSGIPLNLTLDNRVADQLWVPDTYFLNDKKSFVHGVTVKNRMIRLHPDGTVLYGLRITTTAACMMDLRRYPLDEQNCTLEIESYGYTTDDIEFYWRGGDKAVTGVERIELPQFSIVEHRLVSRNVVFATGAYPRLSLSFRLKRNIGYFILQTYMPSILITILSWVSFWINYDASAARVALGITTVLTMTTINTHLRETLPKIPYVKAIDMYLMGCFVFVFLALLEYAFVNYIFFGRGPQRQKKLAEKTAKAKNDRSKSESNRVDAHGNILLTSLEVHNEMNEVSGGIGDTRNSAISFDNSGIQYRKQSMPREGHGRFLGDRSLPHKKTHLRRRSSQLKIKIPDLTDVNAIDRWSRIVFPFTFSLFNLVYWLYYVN
T1 sequence (P18507 40-475): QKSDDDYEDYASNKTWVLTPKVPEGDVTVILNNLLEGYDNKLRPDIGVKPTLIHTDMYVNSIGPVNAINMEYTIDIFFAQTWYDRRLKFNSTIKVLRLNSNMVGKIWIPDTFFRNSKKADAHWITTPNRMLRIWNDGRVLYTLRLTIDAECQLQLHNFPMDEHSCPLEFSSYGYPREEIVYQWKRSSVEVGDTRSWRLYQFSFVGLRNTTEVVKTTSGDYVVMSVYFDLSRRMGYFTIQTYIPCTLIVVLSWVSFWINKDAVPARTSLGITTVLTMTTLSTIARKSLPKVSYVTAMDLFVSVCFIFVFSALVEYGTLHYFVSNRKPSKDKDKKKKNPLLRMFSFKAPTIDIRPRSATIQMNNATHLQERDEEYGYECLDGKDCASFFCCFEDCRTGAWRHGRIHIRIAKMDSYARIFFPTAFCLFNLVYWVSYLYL
T3 sequence (P47869 29-451): as the sequence (P47869 29-451) above
T3 sequence (P28472 26-473 partner): as the sequence (P28472 26-473 partner) above
T3 sequence (P18507 40-475): as the sequence (P18507 40-475) above
T2 sequence (P14867 28-456): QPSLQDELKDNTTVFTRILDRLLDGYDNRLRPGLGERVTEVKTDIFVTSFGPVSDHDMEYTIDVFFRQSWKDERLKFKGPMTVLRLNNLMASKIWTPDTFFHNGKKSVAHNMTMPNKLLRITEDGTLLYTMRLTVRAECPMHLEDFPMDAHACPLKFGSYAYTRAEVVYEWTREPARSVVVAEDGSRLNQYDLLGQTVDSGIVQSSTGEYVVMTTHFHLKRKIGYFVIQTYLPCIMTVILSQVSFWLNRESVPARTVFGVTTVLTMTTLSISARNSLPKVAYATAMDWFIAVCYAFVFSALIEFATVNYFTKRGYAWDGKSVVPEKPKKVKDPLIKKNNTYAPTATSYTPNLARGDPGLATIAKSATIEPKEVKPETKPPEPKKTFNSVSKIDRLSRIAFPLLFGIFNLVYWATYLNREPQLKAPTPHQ
T2 sequence (P47870 25-512 partner limits assumed): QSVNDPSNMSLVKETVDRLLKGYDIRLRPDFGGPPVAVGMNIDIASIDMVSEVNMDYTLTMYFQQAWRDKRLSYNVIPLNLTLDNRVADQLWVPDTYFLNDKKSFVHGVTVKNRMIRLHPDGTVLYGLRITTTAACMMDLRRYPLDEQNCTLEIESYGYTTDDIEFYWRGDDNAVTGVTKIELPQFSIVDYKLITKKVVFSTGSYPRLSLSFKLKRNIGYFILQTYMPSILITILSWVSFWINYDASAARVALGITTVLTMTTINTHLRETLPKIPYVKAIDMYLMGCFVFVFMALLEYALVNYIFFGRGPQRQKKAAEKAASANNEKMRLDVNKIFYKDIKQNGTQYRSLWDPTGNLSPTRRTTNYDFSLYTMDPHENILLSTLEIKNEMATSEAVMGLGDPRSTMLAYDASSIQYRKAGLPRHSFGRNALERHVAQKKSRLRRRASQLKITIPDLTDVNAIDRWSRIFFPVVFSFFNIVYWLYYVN
T2 sequence (P18507 40-475): as the sequence (P18507 40-475) above

Row | Relative Potentiation for GABAA2 (GABAA receptor α2β3γ2) | Relative Potentiation for GABAA1 (GABAA receptor α1β2γ2) | Ki [1] [nM] | Relative Potentiation for GABAA2 (GABAA receptor α2β3γ2; [2]) | Relative Potentiation for GABAA1 (GABAA receptor α1β2γ2; [2]) | Relative Potentiation for GABAA1 (GABAA receptor α1β2γ2; listed as 9-amino-2-cyclobutyl-5-(2,4-dimethoxypyrimidin-5-yl)-2,3-dihydro-1H-pyrrolo[3,4-) | SMILES
1 | 0.28 | −0.055 | 4.08 | – | – | – | CCN1Cc2nc3c(-c4cccnc4OC)c(F)ccc3c(N)c2C1=O [Example 58, 9-Amino-2-ethyl-6-fluoro-5-(2-methoxypyridin-3-yl)-2,3-dihydropyrrolo[3,4-b]quinolin-1-one]
2 | 0.25 | 0.094 | 11.4 | – | – | – | Nc1c2c(nc3c(-c4cc(Cl)ccc4Cl)cccc13)CN(C1CC1)C2=O [Example 59, 9-Amino-2-cyclopropyl-5-(2,5-dichlorophenyl)-2,3-dihydropyrrolo[3,4-b]quinolin-1-one]
3 | 0.44 | 0.09 | 1.84 | – | – | – | COc1ccncc1-c1cccc2c(N)c3c(nc12)CN(C1CCC1)C3=O [Example 62, 9-Amino-2-cyclobutyl-5-(4-methoxypyridin-3-yl)-2,3-dihydropyrrolo[3,4-b]quinolin-1-one]
4 | 0.25 | 0.038 | 3.52 | – | – | – | COc1ccccc1-c1cccc2c(N)c3c(nc12)CN(C1CCC1)C3=O [Example 63, 9-Amino-2-cyclobutyl-5-(2-methoxyphenyl)-2,3-dihydropyrrolo[3,4-b]quinolin-1-one]
5 | 0.31 | 0.06 | 3.81 | – | – | – | COc1ccc(-c2cccc3c(N)c4c(nc23)CN(C2CCC2)C4=O)c(OC)n1 [Example 64, 9-Amino-2-cyclobutyl-5-(2,6-dimethoxypyridin-3-yl)-2,3-dihydropyrrolo[3,4-b]quinolin-1-one]
6 | 0.2 | 0.092 | 2.68 | – | – | – | COc1ccc(CN2Cc3nc4c(-c5c(F)cccc5OC)cccc4c(N)c3C2=O)cc1OC [Example 65, 9-Amino-2-(3,4-dimethoxybenzyl)-5-(2-fluoro-6-methoxyphenyl)-2,3-dihydropyrrolo[3,4-b]quinolin-1-one]
7 | 0.33 | 0.056 | 35.1 | – | – | – | COc1ncccc1-c1cccc2c(N)c3c(nc12)CN(C1CC1)C3=O [Example 66, 9-Amino-2-cyclopropyl-5-(2-methoxypyridin-3-yl)-2,3-dihydropyrrolo[3,4-b]quinolin-1-one]
8 | – | – | 8.11 | 0.16 | 0.02 | – | COc1cccc(F)c1-c1c(F)ccc2c(N)c3c(nc12)CN(C)C3=O [Example 70, 9-Amino-6-fluoro-5-(2-fluoro-6-methoxyphenyl)-2-methyl-2,3-dihydropyrrolo[3,4-b]quinolin-1-one]
9 | 0.12 | 0.02 | 13.3 | – | – | – | CCN1Cc2nc3c(-c4cc(OC)ccc4F)cccc3c(N)c2C1=O [Example 72, 9-Amino-2-ethyl-5-(2-fluoro-5-methoxyphenyl)-2,3-dihydropyrrolo[3,4-b]quinolin-1-one]
10 | 0.12 | −0.036 | 0.973 | – | – | – | N#Cc1ccccc1-c1cccc2c(N)c3c(nc12)CN(C1CCC1)C3=O [Example 76, 2-(9-Amino-2-cyclobutyl-1-oxo-2,3-dihydro-1H-pyrrolo[3,4-b]quinolin-5-yl)benzonitrile]
11 | 0.42 | 0.088 | 0.74 | – | – | – | COc1cc(-c2cccc3c(N)c4c(nc23)CN(C2CCC2)C4=O)c(OC)nn1 [Example 84, 9-Amino-2-cyclobutyl-5-(3,6-dimethoxypyradazin-4-yl)-2,3-dihydropyrrolo[3,4-b]quinolin-1-one]
12 | 0.36 | 0.066 | 15.3 | – | – | – | COc1cc(-c2cccc3c(N)c4c(nc23)CN(C2CCC2)C4=O)c(C#N)cn1 [Example 96, 4-(9-Amino-2-cyclobutyl-1-oxo-2,3-dihydro-1H-pyrrolo[3,4-b]quinolin-5-yl)-6-methoxyniconitrile]
13 | 0.35 | 0.15 | 10.4 | – | – | – | Cc1nn(C)cc1-c1c(F)ccc2c(N)c3c(nc12)CN([C@@H]1CCOC1)C3=O [Example 97, 9-Amino-5-(1,3-dimethyl-1H-pyrazol-4-yl)-6-fluoro-2-(R)-tetrahydrofuran-3-yl-2,3-dihydropyrrolo[3,4-b]quinolin-1-one]
14 | 0.23 | 0.044 | 0.249 | – | – | – | COc1ccc(-c2c(F)ccc3c(N)c4c(nc23)CN(C2CCC2)C4=O)c(OC)c1 [Example 100, 9-Amino-2-cyclobutyl-5-(2,4-dimethoxyphenyl)-6-fluoro-2,3-dihydropyrrolo[3,4-b]quinolin-1-one]
15 | 0.13 | −0.034 | 6.83 | – | – | – | Nc1c2c(nc3c(-c4cc(F)ccc4F)cccc13)CN(C1CC1)C2=O [Example 112, 9-Amino-2-cyclopropyl-5-(2,5-difluorophenyl)-2,3-dihydropyrrolo[3,4-b]quinolin-1-one]
16 | 0.13 | −0.058 | 3.5 | – | – | – | Nc1c2c(nc3c(-c4c(F)cccc4F)cccc13)CN(C1CC1)C2=O [Example 114, 9-Amino-2-cyclopropyl-5-(2,6-difluorophenyl)-2,3-dihydropyrrolo[3,4-b]quinolin-1-one]
17 | 0.12 | −0.05 | 14.5 | – | – | – | COc1ccc(-c2cccc3c(N)c4c(nc23)CN(C2CC2)C4=O)c(F)c1 [Example 115, 9-Amino-2-cyclopropyl-5-(2-fluoro-4-methoxyphenyl)-2,3-dihydropyrrolo[3,4-b]quinolin-1-one]
18 | 0.44 | 0.13 | 4.23 | – | – | 0.12 | COc1ncc(-c2cccc3c(N)c4c(nc23)CN(C2CCC2)C4=O)c(OC)n1 [Example 123, 9-Amino-2-cyclobutyl-5-(2,4-dimethoxypyrimidin-5-yl)-2,3-dihydropyrrolo[3,4-b]quinolin-1-one]
19 | 0.14 | −0.016 | 0.945 | – | – | – | Nc1c2c(nc3c(-c4ccccc4F)cccc13)CN(C1CCC1)C2=O [Example 124, 9-Amino-2-cyclobutyl-5-(2-fluorophenyl)-2,3-dihydropyrrolo[3,4-b]quinolin-1-one]
20 | 0.23 | 0.016 | 31.6 | – | – | – | COc1ccc(-c2cccc3c(N)c4c(nc23)CN(C2CCCC2)C4=O)cn1 [Example 147, 9-Amino-2-cyclopentyl-5-(6-methoxypyridin-3-yl)-2,3-dihydropyrrolo[3,4-b]quinolin-1-one]
21 | 0.19 | −0.14 | 5.68 | – | – | – | COc1ncccc1-c1c(F)ccc2c(N)c3c(nc12)CN([C@H]1CCOC1)C3=O [Example 170, 9-Amino-6-fluoro-5-(2-methoxypyridin-3-yl)-2-(S)-tetrahydrofuran-3-yl-2,3-dihydropyrrolo[3,4-b]quinolin-1-one]

Row | SMILES | Relative Potentiation for GABAA2 (GABAA receptor α2β3γ2) | Relative Potentiation for GABAA1 (GABAA receptor α1β2γ2) | Ki [1] [nM] | Relative Potentiation for GABAA2 (GABAA receptor α2β3γ2; [2]) | Relative Potentiation for GABAA1 (GABAA receptor α1β2γ2; [2]) | Relative Potentiation for GABAA1 (GABAA receptor α1β2γ2; listed as 9-amino-2-cyclobutyl-5-(2,4-dimethoxypyrimidin-5-yl)-2,3-dihydro-1H-pyrrolo[3,4-)
22 | COc1ccc(F)c(-c2cccc3c(N)c4c(nc23)CN(C2CC2)C4=O)c1 [Example 60, 9-Amino-2-cyclopropyl-5-(2-fluoro-5-methoxyphenyl)-2,3-dihydropyrrolo[3,4-b]quinolin-1-one] | 0.33 | 0.079 | 13.8 | – | – | –
23 | COc1ccc(F)cc1-c1c(F)ccc2c(N)c3c(nc12)CN(C1CC1)C3=O [Example 61, 9-Amino-2-cyclopropyl-6-fluoro-5-(5-fluoro-2-methoxyphenyl)-2,3-dihydropyrrolo[3,4-b]quinolin-1-one] | 0.23 | 0.08 | 7.4 | – | – | –
